According to ChEMBL document CHEMBL4813925, “Antibacterial Drimane Sesquiterpenes from Aspergillus ustus” (J Nat Prod, 2021):
≈ marks a conversion by molar mass, not a printed value. Values belong to the molecule of their own block, whether it stands above or below them. Calls of active or inactive are those of the source. The calls are words filed in the database; no cut-off is given here.

How the values were obtained:
Enterococcus faecium [1] = assay: Antibacterial activity against vancomycin-resistant Enterococcus faecium ATCC 700221 assessed as bacterial growth inhibition by CLSI protocol based microbroth dilution method; type: functional
Staphylococcus aureus [2] = assay: Antibacterial activity against multidrug-resistant Staphylococcus aureus ATCC BAA-44 assessed as bacterial growth inhibition by CLSI protocol based microbroth dilution method; type: functional
Bacillus subtilis [3] = assay: Antibacterial activity against Bacillus subtilis ATCC 49343 assessed as bacterial growth inhibition by CLSI protocol based microbroth dilution method; type: functional
Bacillus subtilis [4] = assay: Synergistic antibacterial activity against Bacillus subtilis ATCC 49343 assessed as bacterial growth inhibition in presence of Stromemycin; type: functional
Enterococcus faecium [5] = assay: Synergistic antibacterial activity against vancomycin-resistant Enterococcus faecium ATCC 700221 assessed as bacterial growth inhibition in presence of Stromemycin; type: functional
Staphylococcus aureus [6] = assay: Synergistic antibacterial activity against multidrug-resistant Staphylococcus aureus ATCC BAA-44 assessed as bacterial growth inhibition in presence of Stromemycin; type: functional
Bacillus subtilis [7] = assay: Synergistic antibacterial activity against Bacillus subtilis ATCC 49343 assessed as coefficient of drug interaction in presence of ustusoic-acidB; type: functional
Enterococcus faecium [8] = assay: Synergistic antibacterial activity against vancomycin-resistant Enterococcus faecium ATCC 700221 assessed as coefficient of drug interaction in presence of ustusoic-acidB; type: functional
Staphylococcus aureus [9] = assay: Synergistic antibacterial activity against multidrug-resistant Staphylococcus aureus ATCC BAA-44 assessed as coefficient of drug interaction in presence of ustusoic-acidB; type: functional
Candida albicans = assay: Antifungal activity against Candida albicans ATCC 90027 assessed as fungal growth inhibition by CLSI protocol based microbroth dilution method; type: functional, organism-based
HCT-116 = assay: Cytotoxicity against human HCT-116 cells by MTT assay; type: cell-based
Bacillus subtilis [10] = assay: Synergistic antibacterial activity against Bacillus subtilis ATCC 49343 assessed as bacterial growth inhibition in presence of ustusoic-acidB; type: functional
Enterococcus faecium [11] = assay: Synergistic antibacterial activity against vancomycin-resistant Enterococcus faecium ATCC 700221 assessed as bacterial growth inhibition in presence of ustusoic-acidB; type: functional
Staphylococcus aureus [12] = assay: Synergistic antibacterial activity against multidrug-resistant Staphylococcus aureus ATCC BAA-44 assessed as bacterial growth inhibition in presence of ustusoic-acidB; type: functional
Bacillus subtilis [13] = assay: Synergistic antibacterial activity against Bacillus subtilis ATCC 49343 assessed as coefficient of drug interaction in presence of Stromemycin; type: functional
Enterococcus faecium [14] = assay: Synergistic antibacterial activity against vancomycin-resistant Enterococcus faecium ATCC 700221 assessed as coefficient of drug interaction in presence of Stromemycin; type: functional
Staphylococcus aureus [15] = assay: Synergistic antibacterial activity against multidrug-resistant Staphylococcus aureus ATCC BAA-44 assessed as coefficient of drug interaction in presence of Stromemycin; type: functional

SMILES: O=C1CN(/N=C/c2ccc([N+](=O)[O-])o2)C(=O)N1 [NITROFURANTOIN]
MIC99 (Enterococcus faecium [1]): 125 µg/mL (≈ 525 µM)

SMILES: C/C=C/C=C/C=C/C(=O)O[C@@H]1C=C(CO)[C@](O)(C(=O)O)[C@@]2(C)CCCC(C)(C)[C@H]12
MIC (Staphylococcus aureus [2]; read-out: MIC): > 128 µg/mL
MIC (Enterococcus faecium [1]): 128 µg/mL (≈ 316 µM)
MIC (Bacillus subtilis [3]): 64 µg/mL (≈ 158 µM)

SMILES: C/C=C/C=C/C=C/C(=O)O[C@@H]1C=C(C=O)[C@](O)(C(=O)O)[C@@]2(C)CCCC(C)(C)[C@H]12
MIC (Staphylococcus aureus [2]; read-out: MIC): > 128 µg/mL
MIC (Enterococcus faecium [1]): 67 µg/mL (≈ 166 µM)
MIC (Bacillus subtilis [3]): 38 µg/mL (≈ 94.4 µM)
MIC (Bacillus subtilis [4]): 8 µg/mL
MIC (Enterococcus faecium [5]): 32 µg/mL
MIC (Staphylococcus aureus [6]): 64 µg/mL
CI (Bacillus subtilis [7]): 0.0009
CI (Enterococcus faecium [8]): 0.00013
CI (Staphylococcus aureus [9]): 0.00014
Activity (Candida albicans): inactive
Activity (HCT-116): Non-Toxic

SMILES: CCC/C=C/C=C/CCc1cc(OC(=O)c2c(CC/C=C/C=C/CCC)cc(O)c([C@@H]3O[C@H](CO)[C@@H](O)[C@H](O)[C@H]3O)c2O)cc(O)c1C(=O)O
MIC (Staphylococcus aureus [2]; read-out: MIC): > 128 µg/mL
MIC (Enterococcus faecium [1]): > 128 µg/mL
MIC (Bacillus subtilis [3]): 64 µg/mL (≈ 91.8 µM)
MIC (Bacillus subtilis [10]): 8 µg/mL
MIC (Enterococcus faecium [11]): 32 µg/mL
MIC (Staphylococcus aureus [12]): 64 µg/mL
CI (Bacillus subtilis [13]): 0.0009
CI (Enterococcus faecium [14]): 0.00013
CI (Staphylococcus aureus [15]): 0.00014
Activity (Candida albicans): inactive
Activity (HCT-116): Non-Toxic

MIC99 (Bacillus subtilis [3]): 125 µg/mL (≈ 387 µM)
SMILES: O=C(N[C@H](CO)[C@H](O)c1ccc([N+](=O)[O-])cc1)C(Cl)Cl [CHLORAMPHENICOL]

SMILES: CN[C@H](CC(C)C)C(=O)N[C@H]1C(=O)N[C@@H](CC(N)=O)C(=O)N[C@H]2C(=O)N[C@H]3C(=O)N[C@H](C(=O)N[C@H](C(=O)O)c4cc(O)cc(O)c4-c4cc3ccc4O)[C@H](O)c3ccc(c(Cl)c3)Oc3cc2cc(c3O[C@@H]2O[C@H](CO)[C@@H](O)[C@H](O)[C@H]2O[C@H]2C[C@](C)(N)[C@H](O)[C@H](C)O2)Oc2ccc(cc2Cl)[C@H]1O [VANCOMYCIN]
MIC (Staphylococcus aureus [2]; read-out: MIC100): 125 µg/mL (≈ 86.3 µM)
